The test system of assay [1] is Staphylococcus aureus ATCC43300. The protocol:
(§1) The activies of ramoplanin and its analogs against MRSA and VRE were determined using a liquid microdilution method. MIC values were detected according to the CLSI guidelines. ATCC 25923 (methicillin-sensitive Staphylococcus aureus, MSSA), ATCC 43300 (methicillin-resistant Staphylococcus aureus, MRSA), ATCC 29212 (Enterococcus faecalis) and ATCC 51299 (vancomycin-resistant Enterococcus faecalis, VRE) were employed in this study. Ramoplanin and its analogs were dissolved in 30% methyl alcohol, which was also used as the negative control during the serial tests.
(§2) Antibacterial activities of purified deschlororamoplanin A2 aglycone were compared with ramoplanin A2 and ramoplanin A2 aglycone. The MICs of ramoplanin A2, ramoplanin A2 aglycone and deschlororamoplanin A2 aglycone against ATCC 25923 (methicillin-sensitive Staphylococcus aureus, MSSA), ATCC 43300 (methicillin-resistant Staphylococcus aureus, MRSA), ATCC 29212 (Enterococcus faecalis) and ATCC 51299 (vancomycin-resistant Enterococcus faecalis, VRE) were determined.

For assay [2], the system named is Staphylococcus aureus ATCC25923. As to the method: as §1, §2
Assay [3] deals with Enterococcus faecalis ATCC51299. As to the method:
as §1, §2

Assay [4] relates to Enterococcus faecalis ATCC29212. The protocol: as §1, §2

≈ marks a conversion by molar mass, not a printed value. Where two headings read alike, the source gives them in different places. Numbered stars: 1 amine (or outer) side, 2 acyl side, 3 side chain; on linkers, the order of the positions; unused ones are H or OH. Bridge positions count the residues as written; N and C are the ends. Square brackets hold non-standard residues; d marks the D form. Peptide text beside a SMILES is read from it. * marks the point of attachment. Hpg(αMan(1-2)αMan) = N[C@H](C(=O)O)c1ccc(O[C@H]2O[C@H](CO)[C@@H](O)[C@H](O)[C@@H]2O[C@H]2O[C@H](CO)[C@@H](O)[C@H](O)[C@@H]2O)cc1; Octa(2Z,4E)dienoyl(7-Me) = CC(C)C/C=C/C=C\C(=O)*; X1 = NC(=O)[C@@H](O[*:3])[C@H](N[*:1])C(=O)[*:2]; Hpg(3-Cl) = N[C@H](C(=O)O)c1ccc(O)c(Cl)c1; d(aThr) = C[C@@H](O)[C@@H](N)C(=O)O; dHpg = N[C@@H](C(=O)O)c1ccc(O)cc1; Hpg = N[C@H](C(=O)O)c1ccc(O)cc1; aThr = C[C@H](O)[C@H](N)C(=O)O; dOrn = NCCC[C@@H](N)C(=O)O

The MIC is the lowest concentration that inhibits growth of the organism. Higher therefore signals weaker potency. Turning to `CC(C)C/C=C/C=C\C(=O)N[C@@H](CC(N)=O)C(=O)N[C@@H]1C(=O)N[C@H](c2ccc(O)cc2)C(=O)N[C@H](CCCN)C(=O)N[C@H]([C@@H](C)O)C(=O)N[C@@H](c2ccc(O)cc2)C(=O)N[C@H](c2ccc(O)cc2)C(=O)N[C@@H]([C@H](C)O)C(=O)N[C@@H](Cc2ccccc2)C(=O)N[C@H](CCCN)C(=O)N[C@@H](c2ccc(O)cc2)C(=O)N[C@H]([C@@H](C)O)C(=O)N[C@@H](c2ccc(O)cc2)C(=O)NCC(=O)N[C@@H](CC(C)C)C(=O)N[C@H](C)C(=O)N[C@@H](c2ccc(O)cc2)C(=O)O[C@@H]1C(N)=O` [Deschlororamoplanin A2 aglycone] ({Octa(2Z,4E)dienoyl(7-Me)}-N[X1][dHpg][dOrn][d(aThr)][Hpg][dHpg][aThr]F[dOrn][Hpg][d(aThr)][Hpg]GL[dA][Hpg]; ester 2-C), the MIC was found to be 4 µg/mL (≈ 1.82 µM) in assay [1] (ATCC43300), 2 µg/mL (≈ 0.911 µM) in assay [2] (ATCC25923), 1 µg/mL (≈ 0.456 µM) in assay [3] (ATCC51299) and 1 µg/mL (≈ 0.456 µM) in assay [4] (ATCC29212).
On to `CC(C)C/C=C/C=C\C(=O)N[C@@H](CC(N)=O)C(=O)N[C@@H]1C(=O)N[C@H](c2ccc(O)cc2)C(=O)N[C@H](CCCN)C(=O)N[C@H]([C@@H](C)O)C(=O)N[C@@H](c2ccc(O)cc2)C(=O)N[C@H](c2ccc(O)cc2)C(=O)N[C@@H]([C@H](C)O)C(=O)N[C@@H](Cc2ccccc2)C(=O)N[C@H](CCCN)C(=O)N[C@@H](c2ccc(O[C@H]3O[C@H](CO)[C@@H](O)[C@H](O)[C@@H]3O[C@H]3O[C@H](CO)[C@@H](O)[C@H](O)[C@@H]3O)cc2)C(=O)N[C@H]([C@@H](C)O)C(=O)N[C@@H](c2ccc(O)cc2)C(=O)NCC(=O)N[C@@H](CC(C)C)C(=O)N[C@H](C)C(=O)N[C@@H](c2ccc(O)cc2)C(=O)O[C@@H]1C(N)=O` [Deschlororamoplanin A2] ({Octa(2Z,4E)dienoyl(7-Me)}-N[X1][dHpg][dOrn][d(aThr)][Hpg][dHpg][aThr]F[dOrn][Hpg(αMan(1-2)αMan)][d(aThr)][Hpg]GL[dA][Hpg]; ester 2-C), for which the MIC in assay [1] (ATCC43300) stood at 2 µg/mL (≈ 0.794 µM); in assay [2] (ATCC25923), 2 µg/mL (≈ 0.794 µM); in assay [3] (ATCC51299), 1 µg/mL (≈ 0.397 µM); in assay [4] (ATCC29212), 1 µg/mL (≈ 0.397 µM).
Take `CC(C)C/C=C/C=C\C(=O)N[C@@H](CC(N)=O)C(=O)N[C@@H]1C(=O)N[C@H](c2ccc(O)cc2)C(=O)N[C@H](CCCN)C(=O)N[C@H]([C@@H](C)O)C(=O)N[C@@H](c2ccc(O)cc2)C(=O)N[C@H](c2ccc(O)cc2)C(=O)N[C@@H]([C@H](C)O)C(=O)N[C@@H](Cc2ccccc2)C(=O)N[C@H](CCCN)C(=O)N[C@@H](c2ccc(O)cc2)C(=O)N[C@H]([C@@H](C)O)C(=O)N[C@@H](c2ccc(O)cc2)C(=O)NCC(=O)N[C@@H](CC(C)C)C(=O)N[C@H](C)C(=O)N[C@@H](c2ccc(O)c(Cl)c2)C(=O)O[C@@H]1C(N)=O` [Ramoplanin A2 aglycone] ({Octa(2Z,4E)dienoyl(7-Me)}-N[X1][dHpg][dOrn][d(aThr)][Hpg][dHpg][aThr]F[dOrn][Hpg][d(aThr)][Hpg]GL[dA][Hpg(3-Cl)]; ester 2-C): the MIC in assay [1] (ATCC43300) amounted to 2 µg/mL (≈ 0.897 µM); in assay [2] (ATCC25923) it was 2 µg/mL (≈ 0.897 µM); in assay [3] (ATCC51299), 1 µg/mL (≈ 0.448 µM); in assay [4] (ATCC29212), 0.5 µg/mL (≈ 0.224 µM).
For the compound `CC(C)C/C=C/C=C\C(=O)N[C@@H](CC(N)=O)C(=O)N[C@@H]1C(=O)N[C@H](c2ccc(O)cc2)C(=O)N[C@H](CCCN)C(=O)N[C@H]([C@@H](C)O)C(=O)N[C@@H](c2ccc(O)cc2)C(=O)N[C@H](c2ccc(O)cc2)C(=O)N[C@@H]([C@H](C)O)C(=O)N[C@@H](Cc2ccccc2)C(=O)N[C@H](CCCN)C(=O)N[C@@H](c2ccc(O[C@H]3O[C@H](CO)[C@@H](O)[C@H](O)[C@@H]3O[C@H]3O[C@H](CO)[C@@H](O)[C@H](O)[C@@H]3O)cc2)C(=O)N[C@H]([C@@H](C)O)C(=O)N[C@@H](c2ccc(O)cc2)C(=O)NCC(=O)N[C@@H](CC(C)C)C(=O)N[C@H](C)C(=O)N[C@@H](c2ccc(O)c(Cl)c2)C(=O)O[C@@H]1C(N)=O` [Ramoplanin A2] ({Octa(2Z,4E)dienoyl(7-Me)}-N[X1][dHpg][dOrn][d(aThr)][Hpg][dHpg][aThr]F[dOrn][Hpg(αMan(1-2)αMan)][d(aThr)][Hpg]GL[dA][Hpg(3-Cl)]; ester 2-C), the MIC stood at 4 µg/mL (≈ 1.57 µM) in assay [1] (ATCC43300), 2 µg/mL (≈ 0.783 µM) in assay [2] (ATCC25923), 1 µg/mL (≈ 0.392 µM) in assay [3] (ATCC51299) and 1 µg/mL (≈ 0.392 µM) in assay [4] (ATCC29212).
Regarding Enduracidin, the MIC was 8 µg/mL in assay [1] (Staphylococcus aureus ATCC43300 (methicillin-resistant, MRSA), liquid microdilution, CLSI guidelines, compounds dissolved in 30% methyl alcohol); 8 µg/mL in assay [2] (Staphylococcus aureus ATCC25923 (methicillin-sensitive, MSSA), liquid microdilution, CLSI guidelines, compounds dissolved in 30% methyl alcohol); 8 µg/mL in assay [3] (Enterococcus faecalis ATCC51299 (vancomycin-resistant, VRE), liquid microdilution, CLSI guidelines, compounds dissolved in 30% methyl alcohol); 8 µg/mL in assay [4] (Enterococcus faecalis ATCC29212, liquid microdilution, CLSI guidelines, compounds dissolved in 30% methyl alcohol).

These data come from paper PMC4858212, “Production of the Ramoplanin Activity Analogue by Double Gene Inactivation” (PLoS ONE, 2016).
